Earlier results, collected in patent publication US5214030A, “Calcitonin gene-related peptides for treating erectile dysfunctions” (priority 1989, dated 1993).

System: Cynomolgus monkey
Settings: 1-2 intracavernosal injections per week over 12 months

COc1ccc(Cc2nccc3cc(OC)c(OC)cc23)cc1OC [papaverine]
findings in the erectile tissue: extensive fibrous formation in further parts of the erectile tissue
